Measured values from patent publication US6579881B2 (Eisai Co., Ltd., priority 1997, dated 2003).
Counter-ions that a name gives are not always drawn.

Key:
serotonin 1A receptor = target: T1, serotonin 1A receptor (Rattus norvegicus, UniProt P19327); experiment: Binding test on [3H] 8-hydroxy-dipropylaminotetralin (serotonin 1A receptor); details: [3H] 8-OH-DPAT 0.5 nM, receptor fraction of rat hippocampus; read-out: 5HT1a
T1 construct: To the receptor fraction of the hippocampus were added a test compound and 0.5 nM of [^3H]; 8-hydroxy-dipropylaminotetralin; from tissue; host or cells: SD rat hippocampus, membrane (receptor) fraction
T1 sequence (P19327 1-422): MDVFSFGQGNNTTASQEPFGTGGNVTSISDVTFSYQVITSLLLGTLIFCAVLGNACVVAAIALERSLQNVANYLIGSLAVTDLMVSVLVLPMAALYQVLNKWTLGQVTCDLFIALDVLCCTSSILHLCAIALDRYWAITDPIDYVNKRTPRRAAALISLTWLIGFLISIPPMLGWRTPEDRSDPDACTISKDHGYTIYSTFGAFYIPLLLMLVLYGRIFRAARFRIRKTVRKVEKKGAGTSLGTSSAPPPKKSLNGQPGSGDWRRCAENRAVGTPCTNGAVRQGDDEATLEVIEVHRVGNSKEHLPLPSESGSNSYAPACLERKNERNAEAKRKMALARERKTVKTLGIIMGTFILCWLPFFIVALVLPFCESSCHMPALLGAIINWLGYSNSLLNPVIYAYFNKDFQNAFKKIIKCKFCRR

serotonin 2 receptor = serotonin 2 receptor (Rattus norvegicus, UniProt P14842); experiment: Binding test on [3H] ketanserin (serotonin 2 receptor); details: [3H] ketanserin 0.3 nM, receptor fraction of rat cerebral cortex; read-out: 5HT2
Chain of serotonin 2 receptor (P14842 whole entry): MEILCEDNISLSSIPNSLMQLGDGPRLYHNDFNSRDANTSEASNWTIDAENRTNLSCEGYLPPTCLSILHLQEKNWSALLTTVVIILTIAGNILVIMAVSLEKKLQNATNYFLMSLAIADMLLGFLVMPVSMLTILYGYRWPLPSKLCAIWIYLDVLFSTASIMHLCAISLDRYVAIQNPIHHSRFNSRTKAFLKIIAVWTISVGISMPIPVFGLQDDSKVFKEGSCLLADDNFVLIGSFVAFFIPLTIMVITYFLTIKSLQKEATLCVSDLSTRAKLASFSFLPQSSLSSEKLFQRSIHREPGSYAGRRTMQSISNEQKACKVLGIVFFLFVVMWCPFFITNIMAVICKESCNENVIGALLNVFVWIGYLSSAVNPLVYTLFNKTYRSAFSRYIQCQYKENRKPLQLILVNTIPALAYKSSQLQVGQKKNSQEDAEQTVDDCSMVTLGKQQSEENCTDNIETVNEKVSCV

Molecule	Ki (serotonin 1A receptor) [nM]	Ki (serotonin 2 receptor) [nM]
CCCC(=O)NCc1ccc2c(c1)N(C1CCN(CCc3ccc(F)cc3)CC1)CC2 [Example 157, 1-[1-(4-fluorophenethyl)piperidin-4-yl]-6-(n-butyryl)aminomethylindoline]	4.11	0.18
NC(=O)NCc1ccc2c(c1)N(C1CCN(CCc3ccc(F)cc3)CC1)CC2 [Example 161, 1-[1-(4-fluorophenethyl)piperidin-4-yl]-6-ureidomethylindoline]	3.23	0.43
CC(C)(C)NC(=O)Cc1ccc2c(c1)N(C1CCN(CCc3ccc(F)cc3)CC1)CC2 [Example 153, 1-[1-(4-fluorophenethyl)piperidin-4-yl]-6-(t-butylcarbamoylmethyl)indoline]	15.5	4.24
CCN1CCN(C2CCc3ccc(OC)cc32)CC1 (stereo not shown) [Example 251, 1-(4-ethylpiperazin-1-yl)-6-methoxyindan Hydrochloride]	58.5	> 200
CN1CCC(N2CCc3ccc(NS(=O)(=O)c4ccc(F)cc4)cc32)CC1 [Example 237, 1-(1-methylpiperidin-4-yl)-6-(4-fluorobenzenesulfonylamino)indoline]	30.4	> 200
OCCOc1cccc(CCN2CCC(N3CCc4ccccc43)CC2)c1 [Example 43, 1-{3-[(2-hydroxyethoxy)phenethyl]piperidin-4-yl}indoline]	4.2	37.9
Fc1ccccc1CCN1CCC(N2CCc3ccccc32)CC1 [Example 7, 1-[1-(2-fluorophenethyl)piperidin-4-yl]indoline]	34.3	12.8
CS(=O)(=O)c1ccc2c(c1)N(C1CCN(CCc3ccc(F)cc3)CC1)CC2 [Example 128, 1-[1-(4-fluorophenethyl)piperidin-4-yl]-6-methanesulfonylindoline]	0.34	4.7
O=C1CCCCN1Cc1ccc2c(c1)N(C1CCN(CCc3ccc(F)cc3)CC1)CC2 [Example 203, 1-[1-(4-fluorophenethyl)piperidin-4-yl]-6-(2-piperidon-1-yl)methylindole]	0.55	4.61
CCN1CCC(N2CC(CCc3cccc(F)c3)c3ccccc32)CC1 (stereo not shown) [Example 247, 1-(1-ethylpiperidin-4-yl)-3-(3-fluorophenethyl)indoline]	> 200	52.9
O=S(=O)(Nc1ccc2c(c1)N(C1CCN(CCc3ccc(F)cc3)CC1)CC2)c1ccc(F)cc1 [Example 119, 1-[1-(4-fluorophenethyl)piperidin-4-yl]-6-(4-fluorobenzenesulfonylamino)indoline]	0.2	45.5
COc1ccc2c(c1)N(C1CCN(CCc3ccc(S(N)(=O)=O)cc3)CC1)CC2 [Example 230, 1-[1-(4-sulfamoylphenethyl)piperidin-4-yl]-6-methoxyindoline]	13.3	> 200
CN(C)CCOc1ccc(CCN2CCC(N3CCc4ccccc43)CC2)cc1 [Example 44, 1-{1-[4-(2-dimethylaminoethoxy)phenethyl]piperidin-4-yl}indoline]	4	43.7
COc1ccc(CCN2CCC(N3CCc4ccccc43)CC2)s1 [Example 64]	14.8	14.2
Fc1cc(F)cc(CCN2CCC(N3CCc4ccccc43)CC2)c1 [Example 12, 1-[1-(3,5-difluorophenethyl)piperidin-4-yl]indoline]	8.5	16.3
c1ccc2c(c1)CCN2C1CCN(CCc2ccc3ncsc3c2)CC1 [Example 63, 1-{1-[2-(6-benzothiazolyl)ethyl]piperidin-4-yl}indoline]	3.2	1.2
Fc1ccc(CCN2CCC(n3ccc4ccc(F)cc43)CC2)cc1 [Example 333, 1-[1-(4-fluorophenethyl)piperidin-4-yl]-6-fluoroindole]	1.08	> 20
FCc1ccc2c(c1)N(C1CCN(CCc3ccc(F)cc3)CC1)CC2 [Example 143, 1-[1-(4-fluorophenethyl)piperidin-4-yl]-6-fluoromethylindoline]	1.86	3.36
CN(C)c1ccc(C(O)c2ccc3c(c2)N(C2CCN(CCc4ccc(F)cc4)CC2)CC3)cn1 (stereo not shown) [Example 191, 1-[1-(4-fluorophenethyl)piperidin-4-yl]-6-[1-hydroxy-1-(2-dimethylaminopyridin-5-yl)methyl]indoline]	29.1	0.32

Molecule	Ki (serotonin 1A receptor) [nM]	Ki (serotonin 2 receptor) [nM]
CCS(=O)(=O)Nc1ccc2c(c1)N(C1CCN(CCc3ccc(F)cc3)CC1)CC2 [Example 117, 1-[1-(4-fluorophenethyl)piperidin-4-yl]-6-ethanesulfonylaminoindoline]	0.6	10.7
1-[1-(4-fluorophenethyl)piperidin-4-yl]-6-(1,2,3-triazol-1-yl)methylindoline and 1-[1-(4-fluorophenethyl)piperidin-4-yl]-6-(1,2,3-triazol-2-yl)methylindoline [Example 212]	0.82	0.36
CCCNC(=O)Cc1ccc2c(c1)N(C1CCN(CCc3ccc(F)cc3)CC1)CC2 [Example 150, 1-[1-(4-fluorophenethyl)piperidin-4-yl]-6-(n-propylcarbamoylmethyl)indoline]	13	0.16
C[C@@H]1CN(CCc2ccc(F)cc2)CC[C@@H]1N1CCc2ccccc21 (relative stereo) [Example 79, cis-1-[1-(4-fluorophenethyl)-3-methylpiperidin-4-yl]indoline]	115	26.5
N#CCc1ccc2c(c1)N(C1CCN(CCc3ccc(F)cc3)CC1)CC2 [Example 145, 1-[1-(4-fluorophenethyl)piperidin-4-yl]-6-cyanomethylindoline]	8.07	48.8
CC(=O)NC(C)c1ccc2c(c1)N(C1CCN(CCc3ccc(F)cc3)CC1)CC2 (stereo not shown) [Example 165, 1-[1-(4-fluorophenethyl)piperidin-4-yl]-6-(1-acetamidoethyl)indoline]	5.5	1.22
OCCOc1cccc2c1N(C1CCN(CCc3ccc(F)cc3)CC1)CC2 [Example 123, 1-[1-(4-fluorophenethyl)piperidin-4-yl]-7-hydroxyethoxyindoline]	251	2.7
COc1ccc(CC(C)N2CCC(N3CCc4ccccc43)CC2)cc1OC (stereo not shown) [Example 76, 1-{1-[1-(3,4-dimethoxyphenyl)propan-2-yl]piperidin-4-yl}indoline]	43.2	> 200
CN1CCC(Cc2ccc3c(c2)N(C2CCN(CCc4ccc(F)cc4)CC2)CC3)CC1 [Example 170, 1-[1-(4-fluorophenethyl)piperidin-4-yl]-6-[(1-methylpiperidin-4-yl)methyl]indoline]	47.5	16.3
CCN1CCC(N2CC(Cc3cccnc3)c3ccccc32)CC1 (stereo not shown) [Example 245, 1-(1-ethylpiperidin-4-yl)-3-(3-pyridylmethyl)indoline]	> 200	11.2
O=C1CNC(=O)N1Cc1ccc2c(c1)N(C1CCN(CCc3ccc(F)cc3)CC1)CC2 [Example 207, 1-[1-(4-fluorophenethyl)piperidin-4-yl]-6-(2,4-imidazolidinedion-3-yl)methylindoline]	0.81	2.69
CCN1CCC(N2CC(Cc3ccc(OC)cc3)c3ccccc32)CC1 (stereo not shown) [Example 242, 1-(1-ethylpiperidin-4-yl)-3-(4-methoxybenzyl)indoline]	> 200	2.3
O=C(O)Cc1ccc2c(c1)N(C1CCN(CCc3ccc(F)cc3)CC1)CC2 [Example 146, 1-[1-(4-fluorophenethyl)piperidin-4-yl]-6-carboxymethylindoline]	164	> 200
CNC(=O)Cc1ccc2c(c1)N(C1CCN(CCc3ccc(F)cc3)CC1)CC2 [Example 148, 1-[1-(4-fluorophenethyl)piperidin-4-yl]-6-(methylcarbamoylmethyl)indoline]	9.58	0.25
OC(c1ccc2c(c1)N(C1CCN(CCc3ccc(F)cc3)CC1)CC2)c1cscn1 (stereo not shown) [Example 195, 1-[1-(4-fluorophenethyl)piperidin-4-yl]-6-[1-(4-thiazolyl)-1-hydroxymethyl]indoline]	5.73	1.15
O=C(CCl)NCc1ccc(CCN2CCC(N3CCc4ccccc43)CC2)cc1 [Example 37, 1-[1-(4-chloroacetamidomethylphenethyl)piperidin-4-yl]indoline]	4.6	14.8
COc1ccc(CCN2CCC(N3CCc4ccc(Cl)nc43)CC2)cc1 [Example 263, 1-[1-(4-methoxyphenethyl)piperidin-4-yl]-6-chloro-7-azaindoline]	0.46	> 200
O=C(Cc1ccc2ccn(C3CCN(CCc4ccc(F)cc4)CC3)c2c1)NCCc1ccccn1 [Example 315, 1-[1-(4-fluorophenethyl)piperidin-4-yl]-6-[2-(pyridin-2-yl)ethyl]carbamoylmethylindole Oxalate]	6.74	1.18
O=C(NCc1ccc2c(c1)N(C1CCN(CCc3ccc(F)cc3)CC1)CC2)C1CC1 [Example 159, 1-[1-(4-fluorophenethyl)piperidin-4-yl]-6-cyclopropanecarboxamindomethylindoline]	5.58	0.76
